{"source": "paper PMC3198815", "about": "(PLoS ONE, 2011)", "molecular_target": "T1, xoFabV (Xanthomonas oryzae, UniProt Q2P9J6)", "T1 construct": "gene fabV", "T1 sequence (Q2P9J6 whole entry, looked up)": "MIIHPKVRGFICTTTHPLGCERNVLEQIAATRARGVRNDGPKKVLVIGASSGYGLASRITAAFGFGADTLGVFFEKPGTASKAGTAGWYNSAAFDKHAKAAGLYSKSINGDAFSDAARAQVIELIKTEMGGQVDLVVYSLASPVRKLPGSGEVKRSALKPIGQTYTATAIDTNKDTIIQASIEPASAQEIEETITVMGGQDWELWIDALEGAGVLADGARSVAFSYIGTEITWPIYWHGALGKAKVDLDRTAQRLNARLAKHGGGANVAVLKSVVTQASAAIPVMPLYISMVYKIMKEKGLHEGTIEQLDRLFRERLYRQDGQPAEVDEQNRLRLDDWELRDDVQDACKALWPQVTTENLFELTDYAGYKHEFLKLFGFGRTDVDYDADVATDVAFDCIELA", "settings": "weak binding, data not shown; no electron density in co-crystals"}
{"smiles": "NC(=O)c1ccc[n+]([C@@H]2O[C@H](COP(=O)(O)OP(=O)(O)OC[C@H]3O[C@@H](n4cnc5c(N)ncnc54)[C@H](O)[C@@H]3O)[C@@H](O)[C@H]2O)c1", "note": "[NAD^+]", "values": [{"measurement": "isothermal titration calorimetry", "value": "NAD^+ binds weakly to xoFabV according to isothermal titration calorimetry assay (data not shown)"}]}
